Reference: the supplement of paper PMC5579334
± gives the standard deviation of the averaged measurements.

Key:
HS-PSS [1] = assay: drug sensitivity score (DSS, CellTiter-Glo viability, 72 h) (DSS (dimensionless)); higher = more sensitive; extreme values may be limits of the assay
Summary of the method: (§1)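 MPNST cell lines and primary human Schwann cells were seeded at 750–1000 cells per well into 384-well plates preprinted with each compound at five concentrations in 10-fold steps, then incubated 72 h at 37 °C, 5% CO2. CellTiter-Glo ATP luminescence gave viability, scaled between vehicle and positive-control wells, with duplicates averaged where present. Curves were fitted with a four-parameter logistic model. Percent inhibition refers to the top concentration, while drug sensitivity score and relative IC50, censored at the top concentration, come from these fits.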

HS-Sch-2 [2] = assay: as above
Summary of the method: as §1

[3] = test system: HSC1 (primary human Schwann cells); assay: as above
Summary of the method: as §1

[4] = test system: HSC2 (primary human Schwann cells); assay: as above
Summary of the method: as §1

S1507-2 [5] = assay: as above
Summary of the method: as §1

S462 [6] = assay: as above
Summary of the method: as §1

ST8814 [7] = assay: as above
Summary of the method: as §1

STS26T [8] = assay: as above
Summary of the method: as §1

YST-1 [9] = assay: as above
Summary of the method: as §1

HS-PSS [10] = assay: drug sensitivity score (DSS, CellTox-Green cytotoxicity, 72 h) (DSS (dimensionless)); higher = more cytotoxic; extreme values may be limits of the assay
Summary of the method: (§2)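 For 72 h at 37 °C, MPNST cell lines and primary human Schwann cells were exposed in 384-well plates to five 10-fold compound dilutions. CellTox-Green, added before seeding at a final 1:1000 dilution, gave fluorescence from DNA released by disrupted cells. Signals were scaled to vehicle and positive-control wells, cultures failing plate quality control were left out, and four-parameter logistic fits were applied. Relative IC50 and drug sensitivity score were derived from the fits, with IC50 censored at the top concentration.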

[11] = test system: HSC1 (primary human Schwann cells); assay: as above
Summary of the method: as §2

[12] = test system: HSC2 (primary human Schwann cells); assay: as above
Summary of the method: as §2

S1507-2 [13] = assay: as above
Summary of the method: as §2

ST8814 [14] = assay: as above
Summary of the method: as §2

STS26T [15] = assay: as above
Summary of the method: as §2

HS-PSS [16] = assay: % inhibition of CellTiter-Glo viability at highest tested concentration (72 h), relative to DMSO and benzethonium chloride controls; higher = more inhibition
Summary of the method: as §1

HS-Sch-2 [17] = assay: as above
Summary of the method: as §1

[18] = test system: HSC1 (primary human Schwann cells); assay: as above
Summary of the method: as §1

[19] = test system: HSC2 (primary human Schwann cells); assay: as above
Summary of the method: as §1

S1507-2 [20] = assay: as above
Summary of the method: as §1

S462 [21] = assay: as above
Summary of the method: as §1

ST8814 [22] = assay: as above
Summary of the method: as §1

STS26T [23] = assay: as above
Summary of the method: as §1

YST-1 [24] = assay: as above
Summary of the method: as §1

| Compound | drug sensitivity score (HS-PSS [1]) | drug sensitivity score (HS-Sch-2 [2]) | drug sensitivity score [3] | drug sensitivity score [4] | drug sensitivity score (S1507-2 [5]) | drug sensitivity score (S462 [6]) | drug sensitivity score (ST8814 [7]) | drug sensitivity score (STS26T [8]) | drug sensitivity score (YST-1 [9]) | drug sensitivity score (HS-PSS [10]) | drug sensitivity score [11] | drug sensitivity score [12] | drug sensitivity score (S1507-2 [13]) | drug sensitivity score (ST8814 [14]) | drug sensitivity score (STS26T [15]) | % inhibition (HS-PSS [16]) [%] | % inhibition (HS-Sch-2 [17]) [%] | % inhibition [18] [%] | % inhibition [19] [%] | % inhibition (S1507-2 [20]) [%] | % inhibition (S462 [21]) [%] | % inhibition (ST8814 [22]) [%] | % inhibition (STS26T [23]) [%] | % inhibition (YST-1 [24]) [%] |
| --- | --- | --- | --- | --- | --- | --- | --- | --- | --- | --- | --- | --- | --- | --- | --- | --- | --- | --- | --- | --- | --- | --- | --- | --- |
| O=C(Nc1ccncc1)C(=O)c1cn(Cc2ccc(Cl)cc2)c2ccccc12 [Indibulin] (max concentration tested 10000 nM) | 2.56 | 10.5 | 11.2 | 10.5 | 15 ± 3.3 | 16.5 ± 0.54 | 14.4 | 20.1 | 10.2 | 0 | 5.82 | 7.54 | 10.8 ± 3.9 | 12.6 | 21.5 | 24.1 | 83.6 | 67.6 | 78.1 | 80.5 ± 4.1 | 93.04 ± 0.44 | 74.8 | 93 | 66.2 |
| NC(=O)c1ccc(I)c([N+](=O)[O-])c1 [Iniparib] (max concentration tested 10000 nM) | 0 | 0 | 0 | 0 | 0 | 0 | 0 | 0 | 0 | 0 | 0 | 0 | 6.29 ± 8.9 | 0 | 0.221 | -1.31 | 1.26 | -4.93 | 1.97 | 9.46 ± 1.8 | 13.9 ± 7.7 | -1.13 | 7.72 | -4.35 |
| CCc1c2c(nc3ccc(OC(=O)N4CCC(N5CCCCC5)CC4)cc13)-c1cc3c(c(=O)n1C2)COC(=O)[C@]3(O)CC [Irinotecan] (max concentration tested 10000 nM) | 3.76 | 8.31 | 9.72 | 8.79 | 6.91 ± 0.48 | 9.83 ± 0.34 | 9.68 | 6.61 | 12 | 3.15 | 6.2 | 5.29 | 2.16 ± 1.5 | 8.16 | 3.22 | 58.3 | 81.5 | 63.6 | 72.5 | 75.8 ± 0.88 | 98.1 ± 0.28 | 93.9 | 76.6 | 71.2 |
| C/C(=C\c1csc(C)n1)[C@@H]1C[C@@H]2O[C@]2(C)CCC[C@H](C)[C@H](O)[C@@H](C)C(=O)C(C)(C)[C@@H](O)CC(=O)N1 [Ixabepilone] (max concentration tested 1000 nM) | 1.51 | 5.18 | 7.72 | 4.2 | 3.26 ± 0.04 | 4.444 ± 0.0091 | 3.83 | 4.72 | 3.86 | 0 | 4.19 | 3.03 | 3.15 ± 0.92 | 4.33 | 5.61 | 39.3 | 91.8 | 69.7 | 62.1 | 62.7 ± 3.3 | 84.3 ± 4 | 79.1 | 92.9 | 79 |
| O=C(Cc1ccc(-c2ccc(OCCN3CCOCC3)cc2)cn1)NCc1ccccc1 [KX2-391] (max concentration tested 10000 nM) | 15.7 | 28.3 | 21.4 | 22.7 | 22.6 ± 0.24 | 28.72 ± 0.17 | 25.2 | 29.4 | 24 | 0 | 11.4 | 13.8 | 18.5 ± 2.1 | 30.1 | 32.1 | 76.6 | 93.2 | 75.7 | 86.6 | 75.8 ± 1.3 | 94.784 ± 0.091 | 83.5 | 92.4 | 80.7 |
| CS(=O)(=O)CCNCc1ccc(-c2ccc3ncnc(Nc4ccc(OCc5cccc(F)c5)c(Cl)c4)c3c2)o1 [Lapatinib] (max concentration tested 1000 nM) | 0 | 0 | 0 | 0 | 0 | 0 | 0 | 0.0002 | 0.63 | 0 | 0 | 0 | 0 | 0 | 0 | 6.86 | 1.85 | 7.8 | 5.46 | 2.48 ± 6 | -5.81 ± 6.8 | -2.6 | 10.1 | 22.2 |
| Oc1ccc2c(c1)CC[C@H](c1ccccc1)[C@@H]2c1ccc(OCCN2CCCC2)cc1 [Lasofoxifene] (max concentration tested 1000 nM) | 1.43 | 0 | 0 | 0 | 0 | 0.222 ± 0.31 | 0 | 0 | 0 | 0 | 0 | 0 | 0 | 0 | 0 | 21.2 | 8.81 | 17.1 | 9.44 | 6.44 ± 1.6 | 10.5 ± 10 | -2.62 | 4.5 | -1.77 |
